# Laboratory results from BindingDB's records for doi:10.1021/jm300579z (Merck Research Laboratories, 2012).
# Biological target: Pituitary adenylate cyclase-activating polypeptide type I receptor (Homo sapiens) (UniProt P41586)
# Assay: Antagonist activity at human PAC1 expressed in mouse […] 3T3 cells assessed as inhibition of glucagon-induced cAMP accumulation preincubated for 30 mins prior to glucagon challenge measured after 30 mins post glucagon challenge by liquid scintillation counter
# Pituitary adenylate cyclase-activating polypeptide type I receptor (Homo sapiens), sequence (P41586 whole entry, looked up): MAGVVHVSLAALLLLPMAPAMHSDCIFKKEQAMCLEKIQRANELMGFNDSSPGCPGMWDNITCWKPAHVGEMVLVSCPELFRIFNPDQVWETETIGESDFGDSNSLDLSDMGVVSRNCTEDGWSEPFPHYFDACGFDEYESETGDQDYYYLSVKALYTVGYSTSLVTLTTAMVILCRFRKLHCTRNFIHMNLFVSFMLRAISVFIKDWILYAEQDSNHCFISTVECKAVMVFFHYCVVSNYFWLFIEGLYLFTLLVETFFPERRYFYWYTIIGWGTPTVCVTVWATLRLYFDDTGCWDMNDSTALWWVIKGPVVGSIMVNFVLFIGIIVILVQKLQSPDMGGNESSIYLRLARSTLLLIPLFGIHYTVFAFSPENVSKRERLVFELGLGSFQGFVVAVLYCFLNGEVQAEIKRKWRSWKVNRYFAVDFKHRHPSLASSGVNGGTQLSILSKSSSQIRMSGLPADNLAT
smiles,measurement,value
COc1ccc2cc(-c3cc(-c4cc(Cl)cc(Cl)c4)nn3[C@@H](C)c3ccc(C(=O)NCCC(=O)O)cc3)ccc2c1,IC50,9.2 µM
